{
  "source": "patent US20220033396A1",
  "about": "“FURTHER HETEROAROMATIC COMPOUNDS HAVING ACTIVITY AGAINST RSV” (priority 2018, published 2022)",
  "key": {"in vitro": {"assay": "in vitro", "conditions": "human"}, "rgRSV224 virus": {"test_system": "rgRSV224 virus", "assay": "microbe, parasite or virus in culture", "format": "cell-based", "conditions": "human respiratory syncytial virus, 72 h; rgRSV224 virus (MOI=1), HeLa cells, GFP expression three days post-virus exposure; averaged data of several repeat experiments; read-out: RSV HELA EC50"}},
  "data": [
    {"compound": "C[C@@H]1c2ccccc2CCN1C(=O)c1cc(C2CC2)c2nc(-c3ccc(N4C[C@H](O)[C@@H](O)C4)cc3F)cn2n1", "note": "[Compound 51, (8-cyclopropyl-2-(4-((3 S,4 S)-3,4-dihydroxypyrrolidin-1-yl)-2-fluorophenyl)imidazo[1,2-b]pyridazin-6-yl)((R)-1-methyl-3,4-dihydroisoquinolin-2(1H)-yl)methanone]", "values": [
      {"measurement": "CC50 at 3 days", "setting": "in vitro", "result": 38, "unit": "µM"},
      {"measurement": "EC50", "setting": "rgRSV224 virus", "result": 0.013, "unit": "µM"}
    ]}
  ]
}
